Experimental findings from US10336717B2, “Inhibitors of beta-secretase” (Vitae Pharmaceuticals, Inc., priority 2009, dated 2019) are described below.

Test [1] has as its target truncated human beta-secretase (residues 1-458, His6-tagged) (Homo sapiens (Human), UniProt P56817). Briefly: BACE enzyme assay (fluorescence quench, Example 434A). In kind it is biochemical.
In another test the target is BACE (Homo sapiens (Human), UniProt P56817). Briefly: BACE cell assay: secreted Aβ 1-40 in H4-APPsw cells (AlphaLISA/ELISA, Example 434B). The following applies: in vitro cell activity, Aβ 1-40 in culture media after overnight treatment. In kind it is cell-based. On the technique in general: Bead proximity is the source of the signal in Alpha formats.

By IC50 is commonly meant the midpoint of a concentration-inhibition curve. High values mean weaker potency, low ones greater potency.

Chain of BACE (P56817 46-501 limits assumed): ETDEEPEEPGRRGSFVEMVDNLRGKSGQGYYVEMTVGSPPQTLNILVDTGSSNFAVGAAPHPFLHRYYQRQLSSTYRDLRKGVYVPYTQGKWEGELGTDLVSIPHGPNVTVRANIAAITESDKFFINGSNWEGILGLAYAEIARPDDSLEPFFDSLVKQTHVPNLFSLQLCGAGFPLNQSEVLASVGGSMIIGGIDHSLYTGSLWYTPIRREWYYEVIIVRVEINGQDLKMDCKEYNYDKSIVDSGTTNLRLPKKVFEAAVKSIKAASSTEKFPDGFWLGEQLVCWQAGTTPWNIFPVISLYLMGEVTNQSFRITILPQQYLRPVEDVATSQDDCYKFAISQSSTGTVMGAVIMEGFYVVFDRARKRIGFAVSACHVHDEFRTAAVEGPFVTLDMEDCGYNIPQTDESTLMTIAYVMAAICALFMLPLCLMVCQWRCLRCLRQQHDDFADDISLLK
Chain of truncated human beta-secretase (residues 1-458, His6-tagged) (P56817 22-458): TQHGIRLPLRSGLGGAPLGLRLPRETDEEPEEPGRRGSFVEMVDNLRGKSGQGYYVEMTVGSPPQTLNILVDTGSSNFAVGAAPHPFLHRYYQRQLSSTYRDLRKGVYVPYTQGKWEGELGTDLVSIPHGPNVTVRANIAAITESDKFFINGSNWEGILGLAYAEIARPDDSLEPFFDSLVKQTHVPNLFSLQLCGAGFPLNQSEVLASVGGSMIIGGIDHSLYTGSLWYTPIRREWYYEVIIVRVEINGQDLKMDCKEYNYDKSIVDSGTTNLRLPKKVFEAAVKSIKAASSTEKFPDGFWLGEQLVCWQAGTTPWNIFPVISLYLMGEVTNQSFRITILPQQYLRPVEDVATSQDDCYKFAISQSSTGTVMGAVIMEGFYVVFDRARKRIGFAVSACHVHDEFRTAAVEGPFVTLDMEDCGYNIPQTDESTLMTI

Regarding `CN1OC2(N=C1N)c1ccccc1CC21CCc2ccccc2CC1` (centres unmarked) [Compound 35], the IC50 in test [1] came out at 105 nM.

Regarding `CCOC1CCC2(CC1)Cc1ccc(-c3cccc(C#N)c3)cc1C21N=C(N)N(C)O1` (centres unmarked) [Compound 49], the IC50 against BACE was < 1000 nM.
